Among the data in US9315475B2 (MERCK SHARP & DOHME CORP., priority 2011, dated 2016) are IC50 values, retold here.

Where two headings read alike, the source gives them in different places.

This experiment addresses T1, wildtype HIV-1 protease (Human immunodeficiency virus type 1 group M subtype B, UniProt P04585).
T1 construct: the wildtype HIV-1 protease (which was expressed in Escherichia coli); made in house; host or cells: Escherichia coli
In words: Assay for inhibition of microbial expressed HIV protease (Pepcleav). In kind it is biochemical. To be noted: wild type HIV-1 protease expressed in E. coli, peptide substrate, pH 5.5, mean of at least two independent experiments. The method, then:
Assay for Inhibition of Microbial Expressed HIV Protease (“Pepcleav”)
Studies of the inhibition of the wildtype HIV-1 protease (which was expressed in Escherichia coli) were carried out with a peptide substrate [Val-Ser-Gln-Asn-(βnaphthyl)Ala-Pro-Ile-Val (SEQ ID NO:1)]. The inhibitor is first preincubated with the HIV-1 protease (wild type) enzyme in assay buffer (50 mM sodium acetate, pH 5.5, 100 mM NaCl, and 0.1% BSA) for 30 minutes at room temperature. Substrate is added to 400 micromolar in a total volume of 20 microliters containing 20 picomolar HIV-1 protease (final) and the reaction is incubated for 1 hour at 30° C. The reaction is quenched with the addition of formic acid and indinavir to 0.012% and 150 nM final concentrations, respectively. The product formation is determined after separation of product and substrate on a Zorbax Eclipse XDB-C 18 column connected to an API 4000 mass spectrometer (Applied Biosystems) with multiple reaction monitoring (transitions were 644.5/428.9 and 615.4/422.2 (M1/M3) for product and indinavir respectively). The extent of inhibition of the reaction is determined from the peak area of the products.

As to `COC(=O)N[C@H](C(=O)Nc1ccccc1CC[C@@H]1CN[C@H](CNS(=O)(=O)Cc2ccccc2)CO1)C(c1ccccc1)c1ccccc1` [Example 50, N-(2-{2-[(2R,5R)-5-{[(benzylsulfonyl)amino]methyl}morpholin-2-yl]ethyl}phenyl)-Nα-(methoxycarbonyl)-β-phenyl-L-phenylalaninamide], under “read-out: Pepcleav”, the IC50 was 49 nM.
As for `N[C@H](C(=O)Nc1ccc(F)cc1CC[C@@H]1CN[C@H](COC(=O)NCC(F)F)CO1)C(c1ccccc1)c1ccccc1` [Example 192, N-(2-{2-[(2R,5S)-5-({[(2,2-difluoroethyl)carbamoyl]oxy}methyl)morpholin-2-yl]ethyl}-4-fluorophenyl)-β-phenyl-L-phenylalaninamide], under “read-out: Pepcleav”, the IC50 worked out at 130 nM.
The same measure, in the same setting: then `NC(=O)OC[C@@H]1CO[C@H](CCc2c(F)cncc2NC(=O)[C@@H](N)C(c2ccc(F)cc2)c2ccc(F)cc2)CN1` [Example 119, N-[4-(2-{(2R,5S)-5-[(Carbamoyloxy)methyl]morpholin-2-yl}ethyl)-5-fluoropyridin-3-yl]-4-fluoro-β-(4-fluorophenyl)-L-phenylalaninamide], with 6.9 nM.
Still for that read-out and setting: then `COC(=O)N[C@H](C(=O)Nc1ccccc1CC[C@@H]1CN[C@H](Cn2cc(-c3ccccc3)nn2)CO1)C(c1ccccc1)c1ccccc1` [Example 64, Nα-(methoxycarbonyl)-β-phenyl-N-[2-(2-{(2R,5R)-5-[(4-phenyl-1H-1,2,3-triazol-1-yl)methyl]morpholin-2-yl}ethyl)phenyl]-L-phenylalaninamide], with 56 nM; and `COC(=O)N[C@H](C(=O)Nc1ccccc1CC[C@@H]1CN[C@H](C(=O)NS(=O)(=O)c2ccccc2)CO1)C(c1ccccc1)c1ccccc1` [Example 10, Nα-(methoxycarbonyl)-β-phenyl-N-[2-(2-{(2R,5S)-5-[(phenylsulfonyl)carbamoyl]morpholin-2-yl}ethyl)phenyl]-L-phenylalaninamide], with 17 nM; and `COC(=O)N[C@H](C(=O)Nc1ccccc1CC[C@@H]1CN[C@H](C(N)=O)CO1)C(c1ccccc1)c1ccccc1` [Example 11, methyl [(1S)-2-[(2-{2-[(2R,5S)-5-(aminocarbonyl)morpholin-2-yl]ethyl}phenyl)amino]-1-(diphenylmethyl)-2-oxoethyl]carbamate], with 80 nM.
For `COC(=O)N[C@H](C(=O)Nc1ccccc1CC[C@@H]1CN[C@H](CCc2ccccc2NS(=O)(=O)Cc2ccccc2)CO1)C(c1ccccc1)c1ccccc1` [Example 73, N-(2-{2-[(2R,5R)-5-(2-{2-[(benzylsulfonyl)amino]phenyl}ethyl)morpholin-2-yl]ethyl}phenyl)-Nα-(methoxycarbonyl)-β-phenyl-L-phenylalaninamide], where the note is “read-out: Pepcleav”, the IC50 worked out at 21 nM.
With `COC(=O)N[C@H](C(=O)Nc1ccccc1CC[C@@H]1CN[C@H](CNC(=O)Nc2ccccc2)CO1)C(c1ccccc1)c1ccccc1` [Example 40, N-α-(methoxycarbonyl)-β-phenyl-N-(2-{2-[(2R,5R)-5-{[(phenylcarbamoyl)amino]methyl}morpholin-2-yl]ethyl}phenyl)-L-phenylalaninamide], the IC50 (read-out: Pepcleav) is 52 nM.
With `CCC[C@@H](c1ccccc1)[C@H](N)C(=O)Nc1cccc(F)c1CC[C@@H]1CN[C@H](COC(=O)NCc2ccc(F)cc2)CO1` [Example 199, (βS)-N-(3-fluoro-2-{2-[(2R,5S)-5-({[(4-fluorobenzyl)carbamoyl]oxy}methyl)morpholin-2-yl]ethyl}phenyl)-β-propyl-L-phenylalaninamide], where the note is “read-out: Pepcleav”, the IC50 was 41 nM.
Still for that read-out and setting: then `COC(=O)N[C@H](C(=O)Nc1ccccc1CC[C@@H]1CN[C@H](CNC(=O)c2[nH]c(=O)ccc2F)CO1)C(c1ccccc1)c1ccccc1` [Example 58, methyl N-[(1S)-1-benzhydryl-2-[[2-[2-[(2R,5R)-5-[[(3-fluoro-6-oxo-1H-pyridine-2-carbonyl)amino]methyl]morpholin-4-ium-2-yl]ethyl]phenyl]amino]-2-oxo-ethyl]carbamate], with 66 nM; and `N[C@H](C(=O)Nc1ccc(F)cc1CC[C@@H]1CN[C@H](COC(=O)NCC(F)(F)F)CO1)C(c1ccccc1)c1ccccc1` [Example 196, N-(4-fluoro-2-{2-[(2R,5S)-5-({[(2,2,2-trifluoroethyl)carbamoyl]oxy}methyl)morpholin-2-yl]ethyl}phenyl)-β-phenyl-L-phenylalaninamide], with 79 nM; and `COC(=O)N[C@H](C(=O)Nc1ccccc1CC[C@@H]1CN[C@H](CNC(=O)c2cc3ccccc3[nH]2)CO1)C(c1ccccc1)c1ccccc1` [Example 56, methyl N-[(1S)-1-benzhydryl-2-[[2-[2-[(2R,5R)-5-[(1H-indole-2-carbonylamino)methyl]morpholin-2-yl]ethyl]phenyl]amino]-2-oxo-ethyl]carbamate], with 34 nM.
On the same count and under the same terms, to `COC(=O)N[C@H](C(=O)Nc1cnccc1CC[C@@H]1CN[C@H](COC(=O)NCc2ccc(F)cc2)CO1)C(c1ccccc1)c1ccccc1` [Example 33, N-(4-{2-[(2R,5S)-5-({[(4-fluorobenzyl)carbamoyl]oxy}methyl)morpholin-2-yl]ethyl}pyridin-3-yl)-Nα-(methoxycarbonyl)-β-phenyl-L-phenylalaninamide] belongs 5.7 nM; to `CN1CCC(NC(=O)OC[C@@H]2CO[C@H](CCc3c(F)cncc3NC(=O)[C@@H](N)C(c3ccc(F)cc3)c3ccc(F)cc3)CN2)C1` (stereo partly drawn) [Example 229, 4-fluoro-N-(5-fluoro-4-{2-[(2R,5S)-5-({[(1-methylpyrrolidin-3-yl)carbamoyl]oxy}methyl)morpholin-2-yl]ethyl}pyridin-3-yl)-β-(4-fluorophenyl)-L-phenylalaninamide], 190 nM.
As to `COC(=O)N[C@H](C(=O)Nc1ccccc1CC[C@@H]1CN[C@H](Cn2cc([Si](C)(C)C)nn2)CO1)C(c1ccccc1)c1ccccc1` [Example 65, Nα-(methoxycarbonyl)-β-phenyl-N-(2-{2-[(2R,5R)-5-{[4-(trimethylsilyl)-1H-1,2,3-triazol-1-yl]methyl}morpholin-2-yl]ethyl}phenyl)-L-phenylalaninamide], the IC50 (read-out: Pepcleav) came to 43 nM.
On the same count and under the same terms, then `C[C@H](NC(=O)OC[C@@H]1CO[C@H](COc2c(F)cccc2NC(=O)[C@@H](N)C(c2ccc(F)cc2)c2ccc(F)cc2)CN1)c1ccc(F)cc1` [Example 210, 4-fluoro-N-[3-fluoro-2-({(2S,5S)-5-[({[(1S)-1-(4-fluorophenyl)ethyl]carbamoyl}oxy)methyl]morpholin-2-yl}methoxy)phenyl]-β-(4-fluorophenyl)-L-phenylalaninamide], with 13 nM.
`COC(=O)N[C@H](C(=O)Nc1ccccc1CC[C@@H]1CN[C@H](CNC(=O)Oc2ccccc2)CO1)C(c1ccccc1)c1ccccc1` [Example 51, Nα-(methoxycarbonyl)-N-(2-{2-[(2R,5R)-5-{[(phenoxycarbonyl)amino]methyl}morpholin-2-yl]ethyl}phenyl)-β-phenyl-L-phenylalaninamide]: the IC50 (Pepcleav (nM)) stood at 38 nM.
In the case of `N[C@H](C(=O)Nc1c(F)cccc1OC[C@@H]1CN[C@H](COC(=O)NCC(F)(F)F)CO1)C(c1ccc(F)cc1)c1ccc(F)cc1` [Example 200, 4-fluoro-β-(4-fluorophenyl)-N-(2-fluoro-6-{[(2S,5S)-5-({[(2,2,2-trifluoroethyl)carbamoyl]oxy}methyl)morpholin-2-yl]methoxy}phenyl)-L-phenylalaninamide], under “read-out: Pepcleav”, the IC50 stood at 31 nM.
